# Test results published in patent US20230210819A1, “USE OF BENZISOSELAZOLE DERIVATIVE FOR ANTI-CORONAVIRUS AND CONTROL OF INTERSTITIAL LUNG DISEASE (ILD) RELATED TO CORONAVIRUS” (SHANGHAI YUANXI MEDICINE CORP., priority 2020, published 2023).
# How the values were obtained:
# Assay type in all cases: in vivo, C57 mice
# [1] = test system: bleomycin-induced mouse lung disease model; experiment: Blood gas analysis, 7-d modeling; details: for BEect / HCO3^- / PCO2: arterial blood after administration ended
# Protocol: (§1) Animals of 7-d modeling were randomly divided into 7 groups according to the table below, 6 animals per control group and 12 animals per test group.
# (§2) Drug administration began 24 h or 7 d after modeling. […] The day of the first administration was counted as D1, the next day as D2, and so forth. The normal groups and Model groups were given 200 µL of normal saline daily by gavage administration.
# 1. After being anaesthetized, a mouse was fixed to a board in a supine position.
# 2. After the skin was disinfected with alcohol, a midline cut of about 1.5 cm was made downward in the skin of the neck. The connective tissue between the sternohyoid muscle and the stemothyroid muscle was separated along the anterior border of the sternomastoid muscle with a tissue forceps. The pulsating common carotid artery could be seen on the deep right side of the trachea. A common carotid artery of about 1.5 cm in length was separated. The distal end was ligated with silk thread, and the proximal end was clipped with an artery clip and threaded with a silk thread for later use. The mouse board was placed under a dissecting microscope, and a V-shaped centripetal incision was gently made in a site near the distal end of the artery with a microscopy scissor. A PE microcatheter was inserted into the artery and fixed by making a knot with silk thread. The artery clip was removed, and 0.1-0.2 mL of blood was collected with a 1 mL syringe. The proximal end was clipped with an artery clip, and the syringe was removed. The blood was immediately analyzed on an AbboTTi-STAT blood gas microanalyzer.
# In a blood gas analysis, the H^+ concentration in the blood and gases (mainly CO2 and O2) dissolved in the blood can be determined to directly reflect the function of pulmonary ventilation and the acid-base balance state. They are used to determine in the organism whether the acid-base balance is upset, whether anoxia occurred, the level of anoxia, and so forth.
# [2] = Body weight, bleomycin-induced mice, 7-d modeling; details: for Body weight decreased by: day 1 to day 28
# Protocol: as §1, §2
# All the animals were observed once daily during the experiment for death or dying, feces, ingestion, mental state and behavior and activity. Abnormalities were recorded in time. All the animals were weighed once before grouping and once before each dose.
# (§3) In this experiment, 105 C57 mice were randomly selected and subjected to organ drip administration of a single dose of bleomycin at 2.5 mg/kg for 24 h or 7 d for induction. After 7 days of induction, 3 model mice were randomly selected and dissected to determine whether the modeling was successful. After modeling, the survival of the mice was recorded. The living states of the mice were observed and their body weight was measured at a fixed time.
# A normal control group comprised 6 mice.
# [3] = test system: bleomycin-induced mouse lung disease model; experiment: Lung HE pathological analysis (Ashcroft score), 24-h modeling
# Protocol: (§4) Animals of 24-h modeling were randomly divided into 5 groups according to the table below, 3 animals per control group and 5 animals per test group.
# as §2
# (§5) 1. […] Specifically, a mold was prepared first, and then the tissue was laid flat at the bottom of the mold; after the section face was arranged facedown, the embedding box cover was put on the mold; molten wax was poured into the mold until it overflowed the mold, and then the mold was gently lifted up and laid flat in a freezing platform; after being rapidly cooled and frozen for about 10 min, the mold was took out. • 6) Sectioning method
# (§6) 2. HE staining • 1) A flat section was selected for HE staining. • 2) The section was dewaxed in xylene I for 20 min. • 3) The section was dewaxed in xylene II for 20 min. • 4) The section was soaked in absolute ethanol for 10 min. • 5) Stepwise rehydrating, in absolute ethanol for 5 min, in 90% ethanol for 5 min, in 80% ethanol for 5 min, and in […] for 5 min; and a water wash. • 6) Staining with hematoxylin for 3-5 min. A water wash. • 7) Differentiating with 1% HCl-[…] for 5-10 s. A water wash, and bluing. • 8) Staining with eosin for 30-60 s. A water wash. • 9) Washing with 80% ethanol for 3-5 s, with 95% ethanol for 3-5 s, and with absolute ethanol for 3-5 s. • 10) Coverslipping with neutral resin, observing under a microscope, and photographing.
# (§7) HE sectioning: 3 sections were consecutively made; flat sections of complete tissue were selected for HE staining; each of the sections was photographed in 3 randomly selected fields of view at 200x magnification. The obtained images were scored.
# (§8) The general standard Ashcroft scoring method for pulmonary fibrosis tissues was adopted in HE scoring. The HE pathological analysis is an outcome evaluation for irreversible pulmonary fibrosis that develops in interstitial lung disease models.
# For 5 animals from each of the 24-h modeling groups, a total of 15 HE fields of view were scored. […] According to the scoring criteria, a score below 3 points indicates there has been no significant structural change accompanying in the lung tissues.
# [4] = test system: bleomycin-induced mouse lung disease model; experiment: Lung and spleen coefficients, 24-h modeling
# Protocol: as §4, §2
# Method: after being euthanized, the animals were dissected, and the heart, liver, spleen, lung and kidney were weighed.
# as §3
# A normal control group comprised 3 mice.
# [5] = test system: bleomycin-induced mouse lung disease model; experiment: Lung HE pathological analysis (Ashcroft score), 7-d modeling; details: for HE score (pulmonary fibrosis, Ashcroft): 18 fields of view
# Protocol: as §1, §2, §5, §6, §7, §8
# For 6 animals from each of the 7-d modeling groups, a total of 18 HE fields of view were scored.
# [6] = 24-h modeling, BS 90 mg/kg gavage daily
# [7] = 7-d modeling, BSH: BS 180 mg/kg gavage daily
# [8] = 7-d modeling, BSL: BS 36 mg/kg gavage daily
# [9] = 7-d modeling, BSM: BS 90 mg/kg gavage daily
smiles,measurement,setting,value
"O=c1c2ccccc2[se]n1CCCCn1[se]c2ccccc2c1=O [BS, 1,4-[bis(1,2-benzisoselenazol-3(2H)-one)]butane]",Effect on blood gas analysis (in words),"[1]; BS 90 mg/kg and 180 mg/kg, better than Dex (1-1.5 mg/kg) in general",significant improvements to the function of pulmonary ventilation and the acid-base balance states
same,BEect,[1]; BSH: BS 180 mg/kg gavage daily,-8.00 ± 1.10 mmol/L
same,HCO3^-,[1]; BSH: BS 180 mg/kg gavage daily,27.82 ± 0.91 mmol/L
same,PCO2,[1]; BSH: BS 180 mg/kg gavage daily,32.82±2.02 mmHg
same,BEect,[1]; BSL: BS 36 mg/kg gavage daily,-15.67 ± 4.13 mmol/L
same,HCO3^-,[1]; BSL: BS 36 mg/kg gavage daily,22.30 ± 1.51 mmol/L
same,PCO2,[1]; BSL: BS 36 mg/kg gavage daily,27.45±1.35 mmHg
same,BEect,[1]; BSM: BS 90 mg/kg gavage daily,-9.83 ± 0.75 mmol/L
same,HCO3^-,[1]; BSM: BS 90 mg/kg gavage daily,30.57 ± 1.42 mmol/L
same,PCO2,[1]; BSM: BS 90 mg/kg gavage daily,31.62±1.34 mmHg
same,Body weight,"[2]; BSH: BS 180 mg/kg gavage daily, D1",19.88 ± 0.47 g
same,Body weight,"[2]; BSH: BS 180 mg/kg gavage daily, D7",19.45 ± 0.62 g
same,Body weight,"[2]; BSH: BS 180 mg/kg gavage daily, D14",19.26 ± 0.44 g
same,Body weight,"[2]; BSH: BS 180 mg/kg gavage daily, D21",19.13 ± 0.54 g
same,Body weight,"[2]; BSH: BS 180 mg/kg gavage daily, D28",19.19 ± 0.71 g
same,Body weight decreased by,[2]; BSH: BS 180 mg/kg gavage daily,3.62%
same,Body weight,"[2]; BSL: BS 36 mg/kg gavage daily, D1",17.80 ± 0.72 g
same,Body weight,"[2]; BSL: BS 36 mg/kg gavage daily, D7",17.49 ± 0.84 g
same,Body weight,"[2]; BSL: BS 36 mg/kg gavage daily, D14",17.37 ± 0.80 g
same,Body weight,"[2]; BSL: BS 36 mg/kg gavage daily, D21",17.23 ± 0.76 g
same,Body weight,"[2]; BSL: BS 36 mg/kg gavage daily, D28",17.23 ± 0.82 g
same,Body weight decreased by,[2]; BSL: BS 36 mg/kg gavage daily,3.39%
same,Body weight,"[2]; BSM: BS 90 mg/kg gavage daily, D1",18.20 ± 0.87 g
same,Body weight,"[2]; BSM: BS 90 mg/kg gavage daily, D7",17.89 ± 0.92 g
same,Body weight,"[2]; BSM: BS 90 mg/kg gavage daily, D14",17.63 ± 0.79 g
same,Body weight,"[2]; BSM: BS 90 mg/kg gavage daily, D21",17.46 ± 0.73 g
same,Body weight,"[2]; BSM: BS 90 mg/kg gavage daily, D28",17.41 ± 0.72 g
same,Body weight decreased by,[2]; BSM: BS 90 mg/kg gavage daily,4.53%
same,"Effect on lung tissue structure, HE (in words)","[3]; 24-h model, early stage of pulmonary fibrosis, BS 90 mg/kg",significantly reduce structural changes in lung tissues
same,"HE score and benefit rate, >4 points (fields/total)",[3]; [6],3/15
same,"HE score and benefit rate, >4 points (percent of fields)",[3]; [6],20.0%
same,"HE score and benefit rate, >5, points (fields/total)",[3]; [6],0/15 0/15
same,"HE score and benefit rate, >5, points (percent of fields)",[3]; [6],0% 0%
same,"HE score and benefit rate, ≥3 points (fields/total)",[3]; [6],12/15
same,"HE score and benefit rate, ≥3 points (percent of fields)",[3]; [6],80.0%
same,"HE score (pulmonary fibrosis, Ashcroft)","[3]; 24-h modeling, BS 90 mg/kg gavage daily, 15 fields of view",3.00 ± 0.65
same,"Clear lung tissue damage (HE score up to 5 points), in words","[3]; 24-h modeling, after 35 days of administration, Dex 1-1.5 mg/kg, BS 90 mg/kg",no clear lung tissue damage occurred
same,Lung coefficient,[4]; BS 90 mg/kg gavage daily,0.89±0.04%
same,Spleen coefficient,[4]; BS 90 mg/kg gavage daily,0.37±0.02%
same,Effect on spleen coefficient (in words),"[4]; BS 90 mg/kg, effect better than that of Dex",significantly decrease the spleen coefficient
same,"Effect on lung tissue structure, HE (in words)","[5]; 7-d model, formation stage, BSL (36 mg/kg), BSM (90 mg/kg) and BSH (180 mg/kg)",significantly reduce structural changes in lung tissues
same,Effect against ECM deposition (in words),"[5]; 7-d model, BSH, 180 mg/kg",significant synergetic effect against ECM deposition
same,"Clear lung tissue damage or pathological tissue change, in words","[5]; 7-d modeling, BSH: BS 180 mg/kg",did not show clear lung tissue damage or pathological tissue change
same,"HE score and benefit rate, ≥4 points (fields/total); pathological tissue change",[5]; [7],0/18
same,"HE score and benefit rate, ≥4 points (percent of fields); probability of pathological tissue change",[5]; [7],0%
same,"HE score and benefit rate, ≥5 points (fields/total); clear lung tissue damage",[5]; [7],0/18
same,"HE score and benefit rate, ≥5 points (percent of fields); probability of clear lung tissue damage",[5]; [7],0%
same,"HE score and benefit rate, ≥6 points (fields/total)",[5]; [7],0/18
same,"HE score and benefit rate, ≥6 points (percent of fields)",[5]; [7],0%
same,Lung HE histology description,[5]; [7],substantially complete lung tissue structures
same,"HE score (pulmonary fibrosis, Ashcroft)",[5]; [7],1.48 ± 0.78
same,"HE score and benefit rate, ≥4 points (fields/total); pathological tissue change",[5]; [8],15/18
same,"HE score and benefit rate, ≥4 points (percent of fields); probability of pathological tissue change",[5]; [8],83.3%
same,"HE score and benefit rate, ≥5 points (fields/total); clear lung tissue damage",[5]; [8],6/18
same,"HE score and benefit rate, ≥5 points (percent of fields); probability of clear lung tissue damage",[5]; [8],33.3%
same,"HE score and benefit rate, ≥6 points (fields/total)",[5]; [8],1/18
same,"HE score and benefit rate, ≥6 points (percent of fields)",[5]; [8],5.6%
same,Lung HE histology description,[5]; [8],relatively better lung structures than the Model group
same,"HE score (pulmonary fibrosis, Ashcroft)",[5]; [8],4.28 ± 0.83
same,"HE score and benefit rate, ≥4 points (fields/total); pathological tissue change",[5]; [9],5/18
same,"HE score and benefit rate, ≥4 points (percent of fields); probability of pathological tissue change",[5]; [9],27.8%
same,"HE score and benefit rate, ≥5 points (fields/total); clear lung tissue damage",[5]; [9],1/18
same,"HE score and benefit rate, ≥5 points (percent of fields); probability of clear lung tissue damage",[5]; [9],5.6%
same,"HE score and benefit rate, ≥6 points (fields/total)",[5]; [9],0/18
same,"HE score and benefit rate, ≥6 points (percent of fields)",[5]; [9],0%
same,Lung HE histology description,[5]; [9],much better lung structures than the Model group
same,"HE score (pulmonary fibrosis, Ashcroft)",[5]; [9],3.00 ± 0.84
